Assay results as given in paper PMC10094048, “Synthesis and Anticancer Evaluation of 4-Anilinoquinolinylchalcone Derivatives” (International Journal of Molecular Sciences, 2023).
Where a name gives a salt, the structure may show the parent alone. Read-outs that look alike come from different tables or passages of the source.

Key:
[1] = tested on: rheumatoid arthritis fibroblast-like synoviocytes; conditions: cited from earlier work
retinoblastoma cells = tested on: retinoblastoma cells; design: method as in PMID 26564153; conditions: cited from earlier work
[2] = cited from earlier work
[3] = tested on: human retinoblastoma Y79 cell; design: method as in PMID 26564153; conditions: 48 h XTT assay; read-out: IC50 Y79 cell proliferation; cited from earlier work
H1299 = tested on: H1299; design: method as in PMID 23237975; conditions: read-out: IC50 against the growth of H1299; cited from earlier work
MDA-MB-231 [4] = tested on: MDA-MB-231; design: method as in PMID 23237975; conditions: value marked with footnote c; cited from earlier work
MRC-5 = assay: XTT antiproliferative assay, normal lung cells MRC-5; format: cell-based; conditions: Homo sapiens, MRC5, 72 h, mean ± SD
Protocol: (§1) All the synthesized 4-anilinoquinolinylchalcone derivatives were evaluated in vitro against two cancer cells (Huh-7 and MDA-MB-231) and a non-cancer normal fibroblast lung cell line (MRC-5) using an XTT (sodium 3′-[1-(phenylamino-carbonyl)-3,4-tetrazolium}-bis(4-methoxy-6-nitro)benzene sulfonic acid hydrate) assay. The concentration that inhibited the growth of 50% of cells (IC50) was determined from the linear portion of the curve by calculating the concentration of the tested agent that reduced absorbance in treated cells, compared to control cells, by 50%. The IC50 results of these 4-anilinoquinolinylchalcone derivatives are summarized (Table 1). […] Thus, 4a was selected as a lead compound for further mechanism studies.
(§2) Cancer cells (Huh-7, MDA-MB-231) and normal lung cells (MRC-5) were purchased from Bioresources Collection and Research Center, Taiwan. Cells were maintained in the same standard medium, grown as a monolayer in DMEM (Gibco, Miami, FL, USA), and supplemented with 10% fetal bovine serum (FBS) and antibiotics, i.e., 100 IU/mL penicillin, 0.1 mg/mL streptomycin and 0.25 μg/mL amphotericin. The culture was maintained at 37 °C with 5% CO2 in a humidified atmosphere. Cells (5 × 10^3 cells/well) were treated with tested compounds for 72 h in the medium containing 10% FBS. Cell viability was quantitated with the use of sodium 3′-[1-(phenylamino-carbonyl)-3,4-tetrazolium}-bis(4-methoxy-6-nitro)benzene sulfonic acid hydrate (XTT) colorimetric assay (Biological Industries, Beit-Haemek, Israel). XTT labeling reagent (1 mg/mL) was mixed with electron-coupling reagent, following the manufacturer’s instructions, and 50 μL of the mixture was added directly to the cells. The plates were further incubated at 37 °C for 4 h. Color was measured spectrophotometrically in a microtiter plate reader at 492 nm and used as a relative measurement of viable cell numbers. After drug treatment, the viable cell number was compared to the solvent and untreated control cell number. This information was used to determine the percent of control growth as (Abtreated/Abcontrol) × 100, where Ab represents the mean absorbance (n = 3). The concentration that killed 50% of cells (IC50) was determined from the linear portion of the curve by calculating the concentration of the agent that reduced the absorbance in treated cells, compared to control cells, by 50%.

SKBR-3 = tested on: SKBR-3; design: method as in PMID 23237975; conditions: read-out: IC50 against the growth of SKBR-3; cited from earlier work
[5] = tested on: breast cancer MDA-MB-231 cells; assay: Cellular ATP assay (ATPlite luminescence); format: cell-based, human; conditions: MDA-MB-231, 24 h
Protocol: ATP levels are another cell viability indicator [31, 32, 33]. To further confirm the inhibition of the cell proliferative ability of compound 4a, the cellular ATP levels of breast cancer MDA-MB-231 cells were assessed (Figure 2).
Cellular ATP was determined using the ATPlite luminescence reagent (PerkinElmer Life Sciences, Boston, MA, USA). According to the user instruction, the cell lysate of treated cells was reacted with ATPlite substrate for 5 min in the dark. Finally, the luminescence was detected by a luminometer (Berthold Technologies GmbH & Co., Bad Wildbad, Germany).

[6] = tested on: breast cancer MDA-MB-231 cells; assay: Annexin V/7AAD apoptosis assay (flow cytometry); format: cell-based, human; conditions: MDA-MB-231, 24 h, 5 and 10 μM versus control and 1 μM
Protocol: To examine the apoptosis-inducing ability of compound 4a, the annexin V/7-aminoactinomycin D (7-AAD) change in breast cancer MDA-MB-231 cells was assessed. […] Compound 4a, consisting of both versatile quinoline and chalcone moieties, was also active in inducing cancer cell apoptosis.
Annexin V/7AAD flow cytometry was a common method for detecting apoptosis. The commercial product containing annexin V-FITC (1:1000) and 7AAD (1 μg/mL) (Strong Biotech; Taipei, Taiwan) was applied to stain drug-treated cells for 1 h. Finally, these stained cells were conducted with flow cytometry (Guava easyCyte, Luminex, TX, USA).

[7] = tested on: breast cancer MDA-MB-231 cells; assay: Caspase 3/7 luminescence assay; format: cell-based, human; conditions: for caspase 3/7 activation: 24 h
Protocol: Using the caspase 3/7 luminescence assay, the modulating ability of breast cancer MDA-MB-231 cells on caspase 3/7 signaling with compound 4a was evaluated. […] Moreover, this caspase 3/7 activation with compound 4a was suppressed by NAC pretreatment.
Caspase 3/7 activation is the essential process for apoptosis, which was measured by the caspase-Glo® 3/7 assay (Promega; Madison, WI, USA), and its signal was read and recorded by a Luminometer (Berthold Technologies GmbH & Co., Bad Wildbad, Germany). The role of the induction of ROS affecting caspase 3/7 activity in drug-treated cells was evaluated by the 1 h pretreatment of 10 mM NAC [45, 49, 50].

[8] = tested on: breast cancer MDA-MB-231 cells; assay: ROS assay (H2DCFDA flow cytometry); format: cell-based, human; conditions: MDA-MB-231, 24 h
Protocol: To evaluate the ROS-inducing ability of compound 4a, the flow cytometry-based ROS detection of breast cancer MDA-MB-231 cells was conducted.
The oxidative stress indicator, such as ROS, was selected to assess the impact of drug treatment on the change in oxidative stress. According to the manufacturer’s instructions, the ROS reacting probe 2′,7′-dichlorodihydrofluorescein diacetate (H2DCFDA) (Sigma-Aldrich) was applied to drug-treated cells. Finally, these stained cells were conducted with flow cytometry.

Huh-7 [9] = assay: XTT antiproliferative assay, Huh-7; format: cell-based; conditions: Homo sapiens, 72 h, mean ± SD
Protocol: as §1, §2

MDA-MB-231 [10] = assay: XTT antiproliferative assay, MDA-MB-231; format: cell-based; conditions: Homo sapiens, 72 h, mean ± SD
Protocol: as §1, §2

[11] = tested on: non-small-cell lung A549 cancer cells; conditions: 48 h trypan blue exclusion assay; read-out: IC50 antiproliferation A549; cited from earlier work
Huh-7 [12] = tested on: Huh-7; design: method as in PMID 31234033; conditions: Chen et al.; cited from earlier work
HA22T = tested on: HA22T; design: method as in PMID 31234033; conditions: Chen et al.; cited from earlier work
HepG2 = tested on: HepG2; design: method as in PMID 31234033; conditions: Chen et al.; cited from earlier work
MDA-MB-231 cell line = tested on: MDA-MB-231 cell line; design: method as in PMID 31234033; conditions: after 24 h of treatment; read-out: IC50 cytotoxicity on MDA-MB-231; cited from earlier work

Q: Which melting point does the source give for `COc1cccc(COc2ccc(Nc3cc(/C=C/C(=O)c4ccc(F)cc4)nc4ccccc34)cc2)c1` (as salt: salt) [Compound 5f, (E)-1-(4-Fluorophenyl)-3-{4-{{4-[(3-methoxybenzyl)oxy]phenyl}amino}quinolin-2-yl}prop-2-en-1-one] here?
A: Its melting point is 165 to 166 °C.

Q: Which melting point does the source give for `O=C(/C=C/c1cc(Nc2ccc(OCc3ccc(Cl)cc3)cc2)c2ccccc2n1)c1ccc(F)cc1` (as salt: salt) [Compound 5g, (E)-3-{4-{{4-[(4-Chlorobenzyl)oxy]phenyl}amino}quinolin-2-yl}-1-(4-fluorophenyl)prop-2-en-1-one] here?
A: Its melting point is 179 to 180 °C.

Q: Which melting point does the source give for `O=C(/C=C/c1cc(Nc2ccc(OCc3ccc(F)cc3)cc2)c2ccccc2n1)c1ccc(F)cc1` (as salt: salt) [Compound 5h, (E)-3-{4-{{4-[(4-Fluorobenzyl)oxy]phenyl}amino}quinolin-2-yl}-1-(4-fluorophenyl)prop-2-en-1-one] here?
A: The melting point was 254 to 255 °C.

Q: With `COc1cc(/C=C/C(=O)c2ccc3ccccc3c2O)cc(OC)c1` [(E)-3-(3,5-dimethoxyphenyl)-1-(1-hydroxynaphthalen-2-yl) prop-2-en-1-one] as the compound, how does the ROS burst [1] read?
A: The ROS burst was “evoke ROS burst”.

Q: Which ROS production (retinoblastoma cells) does the source give for `O=C1c2cc(OCCN3CCCC3)ccc2-c2c(-c3ccc(OCCN4CCCC4)cc3)nc3ccc(OCCN4CCCC4)cc3c21` [BPIQ, 2,9-bis [2-(pyrrolidin-1-yl)ethoxy]-6-{4-[2-(pyrrolidin-1-yl)ethoxy]phenyl}-11H-indeno[1,2-c]quinolin-11-one] here?
A: The ROS production was “induces ROS production”.

Q: What about the apoptosis induction [2] of the same compound?
A: Its apoptosis induction is “apoptosis induction”.

Q: What about the IC50 [3] of the same compound?
A: The IC50 was 13.6 µM.

Q: With `COc1ccc(-c2cc3ccccc3nc2/C=C/C(=O)c2ccccc2)cc1` [Compound 1, (E)-3-[3-(4-methoxyphenyl)quinolin-2-yl]-1-phenylprop-2-en-1-one] as the compound, how does the IC50 (H1299) read?
A: The IC50 was 1.41 µM.

Q: And the IC50 (MDA-MB-231 [4])?
A: Its IC50 is 0.86 ± 0.07 µM.

Q: And the IC50 (MRC-5)?
A: The IC50 was 0.66 ± 0.06 µM.

Q: What about the IC50 (SKBR-3) of the same compound?
A: Its IC50 is 0.7 µM.

Q: Which results are given for `COc1ccc(C(=O)/C=C/c2cc(Nc3ccc(OCc4ccccc4)cc3)c3ccccc3n2)cc1` [Compound 4a, (E)-3-{4-{[4-(Benzyloxy)phenyl]amino}quinolin-2-yl}-1-(4-methoxyphenyl)prop-2-en-1-one]?
A: cellular ATP levels [5]: dose-responsive downregulation of ATP; annexin V/7AAD apoptosis [6]: more significant apoptosis; IC50 (MRC-5): > 20 µM; caspase 3/7 activation ([7]; MDA-MB-231, 1 μM): inactive; caspase 3/7 activation ([7]; MDA-MB-231, 5 and 10 μM): significant caspase 3/7 activation; caspase 3/7 activation after NAC pretreatment ([7]; MDA-MB-231, 1 h pretreatment of 10 mM NAC, then 4a 24 h): suppressed; ROS induction [8]: dose-responsive induction of ROS; IC50 (Huh-7 [9]): 1.47 ± 0.07 µM; IC50 (MDA-MB-231 [10]): 0.11 ± 0.07 µM

Q: With `CN(C)CCCOc1ccc(-c2nc3ccc(F)cc3c3c2-c2ccc(OCCCN(C)C)cc2C3=O)cc1` [DFIQ] as the compound, how does the IC50 [11] read?
A: Its IC50 is 3.53 µM.

Q: Which results are given for `CS(=O)(=O)CCNCc1ccc(-c2ccc3ncnc(Nc4ccc(OCc5cccc(F)c5)c(Cl)c4)c3c2)o1` [Lapatinib]?
A: IC50 (Huh-7 [12]): 2.11 µM; IC50 (HA22T): 4.85 µM; IC50 (MRC-5): > 20 µM; IC50 (Huh-7 [9]): 12.5 ± 0.28 µM; IC50 (MDA-MB-231 [10]): 12.8 ± 0.91 µM; IC50 (HepG2): 3.42 µM; IC50 (MDA-MB-231 cell line): 32.5 µM
